Values after ≈ are worked out from the molar mass of the structure shown.
Legend:
Assay type in all cases: cell-based
[1] = system: Bacillus subtilis; assay: MIC against bacteria (serial dilution in nutrient broth); settings: 37 C., 48 hrs
Procedure: (§1) In order to assay the effectiveness of the compounds of the present invention, the MIC(minimum inhibitory concentration) on bacteria, yeast and fungi were determined.
(§2) Minimum inhibitory concentrations were determined according to following procedure.
(§3) For the bacteriostatic activity, the said invention compounds were serially diluted with 10 ml of sterile nutrient broth. Each tube was inoculated with 1 drop of an aqueous suspension of the various test organisms containing approximately 1×10^6 organisms/ml and incubated at 37 C. for 48 hrs. After incubation, the IMC of the said invention compounds were determined as the lowest concentration of compound in which no microscopic evidence of growth was observed. The compounds and the MIC value against bacteria of the compounds can be seen from the following table 1.

[2] = system: Escherichia coli; assay: as above; settings: 37 C., 48 hrs
Procedure: as §1, §2, §3

[3] = system: Pseudomonas aeruginosa; assay: as above; settings: 37 C., 48 hrs
Procedure: as §1, §2, §3

[4] = system: Staphylococcus aureus; assay: as above; settings: 37 C., 48 hrs
Procedure: as §1, §2, §3

[5] = system: Aspergillus flavus; assay: MIC for molds (sabouraud dextrose agar); settings: 168 h, 25 C., 7 days, read-out: MIC for molds and yeast
Procedure: as §1
(§4) For the evaluation of fungistatic activity, each compound was serially diluted in test tubes to give the desired concentration when mixed with 20 ml of steriled molten sabouraud dextrose agar, and poured into sterile petri dishes.
(§5) After the medium was solidified, the spore-suspension of the each test organisms were inoculated by streaking and incubated at 25 C. for 7 days.
(§6) The minimum concentration of the compound effective for inhibiting the growth is determined by examining the growth of the each organism.
(§7) In the above mentioned method the MIC for yeast and molds of the compounds A,B,C,D and E were obtained and can be seen from the table 2.

[6] = system: Aspergillus niger; assay: MIC for molds (sabouraud dextrose agar); settings: 168 h, 25 C., 7 days, read-out: MIC for molds and yeast
Procedure: as §1, §4, §5, §6, §7

[7] = system: Fusarium solani; assay: MIC for molds (sabouraud dextrose agar); settings: 168 h, 25 C., 7 days, read-out: MIC for molds and yeast
Procedure: as §1, §4, §5, §6, §7

[8] = system: Tricoderma virid; assay: MIC for molds (sabouraud dextrose agar); settings: 168 h, 25 C., 7 days, read-out: MIC for molds and yeast
Procedure: as §1, §4, §5, §6, §7

[9] = system: Candida albicans; assay: MIC for yeast (sabouraud dextrose agar); settings: 168 h, 25 C., 7 days, read-out: MIC for molds and yeast
Procedure: as §1, §4, §5, §6, §7

[10] = system: bacteria; assay: MIC against bacteria, summary over the test bacteria; settings: for MIC: 48 h, four bacteria of table 1, read-out: MIC value (range over the test bacteria)
Procedure: as §1, §2, §3

[11] = system: molds and yeast; assay: fungistatic activity, summary over molds and yeast; settings: from table 2
Procedure: as §1, §4, §5, §6, §7

[12] = system: micro-organisms, including bacteria, yeast and molds; assay: antimicrobial activity, bacteria, yeast and molds; settings: comparison of table 2 with table 1
Procedure: as §1, §2, §3, §4, §5, §6

| Structure (SMILES) | MIC [1] [µg/mL] | MIC [2] [µg/mL] | MIC [3] [µg/mL] | MIC [4] [µg/mL] | MIC [5] [µg/mL] | MIC [6] [µg/mL] | MIC [7] [µg/mL] | MIC [8] [µg/mL] | MIC [9] [µg/mL] | MIC [10] [µg/mL] | fungistatic activity compared with the compounds C and D [11] | activity against bacteria compared with fungi and yeast [12] | strength relative to compound C and D (times as strong) ([10]; from MIC values of table 1) |
| --- | --- | --- | --- | --- | --- | --- | --- | --- | --- | --- | --- | --- | --- |
| O=C1NC(c2ccc(O)c(Cl)c2)C(=O)N1CO (centres unmarked) [E, 5-(3-Chloro-4-hydroxyphenyl)-3-hydroxymethylhydantoin] | 500 (≈ 1.95 mM) | 100 (≈ 0.39 mM) | 100 (≈ 0.39 mM) | 100 (≈ 0.39 mM) | 2000 (≈ 7.79 mM) | 2000 (≈ 7.79 mM) | 1000 (≈ 3.9 mM) | 1000 (≈ 3.9 mM) | 2000 (≈ 7.79 mM) | 100 to 500 (≈ 0.39 to 1.95 mM) | stronger fungistatic activities than the compounds C and D | by far stronger activities against bacteria than fungi and yeast | – |
| O=C1NC(c2ccc(O)cc2)C(=O)N1CO (centres unmarked) [A, 5-(4-hydroxyphenyl)-3-hydroxymethylhydantoin] | 300 (≈ 1.35 mM) | 100 (≈ 0.45 mM) | 200 (≈ 0.9 mM) | 200 (≈ 0.9 mM) | 3000 (≈ 13.5 mM) | 2000 (≈ 9 mM) | 1500 (≈ 6.75 mM) | 1000 (≈ 4.5 mM) | 4000 (≈ 18 mM) | 100 to 300 (≈ 0.45 to 1.35 mM) | stronger fungistatic activities than the compounds C and D | by far stronger activities against bacteria than fungi and yeast | about 10 times |
| O=C1C(c2ccc(O)cc2)N(CO)C(=O)N1CO (centres unmarked) [B, 5-(4-hydroxyphenyl)-1,3-bis (hydroxymethyl)hydantoin] | 200 (≈ 0.793 mM) | 100 (≈ 0.396 mM) | 100 (≈ 0.396 mM) | 100 (≈ 0.396 mM) | 2000 (≈ 7.93 mM) | 1000 (≈ 3.96 mM) | 1000 (≈ 3.96 mM) | 1000 (≈ 3.96 mM) | 2000 (≈ 7.93 mM) | 100 to 200 (≈ 0.396 to 0.793 mM) | stronger fungistatic activities than the compounds C and D | by far stronger activities against bacteria than fungi and yeast | – |
| CCC(O)N1C(=O)C(c2ccc(O)cc2)N(C(O)CC)C1=O (centres unmarked) [D, 5-(4-hydroxyphenyl)-1,3-bis (1-hydroxypropyl)hydantoin] | 1200 (≈ 3.89 mM) | 900 (≈ 2.92 mM) | 1500 (≈ 4.86 mM) | 1000 (≈ 3.24 mM) | 5000 (≈ 16.2 mM) | 3000 (≈ 9.73 mM) | 3000 (≈ 9.73 mM) | 2000 (≈ 6.49 mM) | 5000 (≈ 16.2 mM) | 700 to 1500 (≈ 2.27 to 4.86 mM) | – | by far stronger activities against bacteria than fungi and yeast | – |
| CC(O)N1C(=O)C(c2ccc(O)cc2)N(C(C)O)C1=O (centres unmarked) [C, 5-(4-hydroxyphenyl)-1,3-bis (1-hydroxyethyl)hydantoin] | 1000 (≈ 3.57 mM) | 700 (≈ 2.5 mM) | 1200 (≈ 4.28 mM) | 700 (≈ 2.5 mM) | 5000 (≈ 17.8 mM) | 4000 (≈ 14.3 mM) | 3000 (≈ 10.7 mM) | 3000 (≈ 10.7 mM) | 5000 (≈ 17.8 mM) | 700 to 1500 (≈ 2.5 to 5.35 mM) | – | by far stronger activities against bacteria than fungi and yeast | – |

— patent publication US4440934A, “5-(4-Hydroxyphenyl) hydantoin derivatives” (Pacific Chemical Ind. Co., Ltd., priority 1981, dated 1984)
